# Columns and labels:
# [1] = Crystal form stability on shaking in solvent or heating (XRPD); assay type: physicochemical; conditions: for crystal form after heating: heated to 150° C.; for crystal form after shaking of mixed forms: crystal forms III and IV mixed in ACE and MeOH, shaken at 50° C. for 1 day
# Experimental: The reaction solution in the step 4 of Example 1 was poured into water, extracted with ethyl acetate, dried and concentrated, ethanol was added to dissolve and the solution was evaporated, 1N hydrochloric acid and ethyl acetate were added and stirred for 1-2 h, filtered, a solid product which was the crystal form III of free base was obtained, the X-ray powder diffraction pattern is shown in FIG. 11A (the 2θ angle has been marked), the DSC/TGA/DVS patterns are shown in FIGS. 11B, 11C and 11D. According to the DSC pattern, there is an inflection point around 100° C., and the sample has a melting absorption peak at 181.9° C. […] The sample was shaken in ACE and MeOH at 50° C. for 1 day, and the crystal form was unchanged.
# The reaction solution in the step 4 of Example 1 was poured into water, extracted with ethyl acetate, dried and concentrated to retain a small amount of ethyl acetate, 1N hydrochloric acid was added and stirred for 1 h, filtered, the filter cake was washed with ethanol and then filtered to obtain a solid product which was the crystal form IV of free base was obtained. The X-ray powder diffraction pattern is shown in FIG. 12A (the […] has been marked), the DSC/TGA/DVS patterns are shown in FIGS. 12B, 12C and 12D. […] The sample was shaken in ACE at 50° C. for 1 day, and the crystal form was unchanged. […]
# [2] = Hygroscopicity experiment (DVS); assay type: physicochemical
# From the text: The Dynamic Vapor Sorption (DVS) curve was acquired on the DVS Intrinsic of Surface Measurement Systems.
# The DVS results for crystal forms A, D, E-3 and F are shown in FIG. 1E, FIG. 4F, FIG. 7E and FIG. 8E, respectively.
SMILES,crystal form after heating [1],hygroscopicity (DVS curve) [2],stability of the crystal form (assessment in words) [1],crystal form after shaking of mixed forms [1],crystal form after shaking ([1]; shaken in ACE and MeOH at 50° C. for 1 day),crystal form after shaking ([1]; shaken in ACE at 50° C. for 1 day)
"Cc1cc(N2CCN(Cc3cc(F)c(C(=O)NS(=O)(=O)C4CC4)cc3Cl)CC2)ccc1Cl [crystal form VII, 5-chloro-4-((4-(4-chloro-3-methylphenyl)piperazin-1-yl)methyl)-N-(cyclopropylsulfonyl)-2-fluorobenzamide]",converted into crystal form I,slightly hygroscopic,–,–,–,–
"Cc1cc(N2CCN(Cc3cc(F)c(C(=O)NS(=O)(=O)C4CC4)cc3Cl)CC2)ccc1Cl [crystal form III, 5-chloro-4-((4-(4-chloro-3-methylphenyl)piperazin-1-yl)methyl)-N-(cyclopropylsulfonyl)-2-fluorobenzamide]",–,slightly hygroscopic,metastable crystal form,converted into crystal form I,unchanged,–
"Cc1cc(N2CCN(Cc3cc(F)c(C(=O)NS(=O)(=O)C4CC4)cc3Cl)CC2)ccc1Cl [crystal form IV, 5-chloro-4-((4-(4-chloro-3-methylphenyl)piperazin-1-yl)methyl)-N-(cyclopropylsulfonyl)-2-fluorobenzamide]",–,slightly hygroscopic,metastable crystal form,converted into crystal form I,–,unchanged
"Cc1cc(N2CCN(Cc3cc(F)c(C(=O)NS(=O)(=O)C4CC4)cc3Cl)CC2)ccc1Cl [crystal form VI, 5-chloro-4-((4-(4-chloro-3-methylphenyl)piperazin-1-yl)methyl)-N-(cyclopropylsulfonyl)-2-fluorobenzamide]",converted into crystal form I,slightly hygroscopic,–,–,–,–
"Cc1cc(N2CCN(Cc3cc(F)c(C(=O)NS(=O)(=O)C4CC4)cc3Cl)CC2)ccc1Cl [crystal form I, 5-chloro-4-((4-(4-chloro-3-methylphenyl)piperazin-1-yl)methyl)-N-(cyclopropylsulfonyl)-2-fluorobenzamide]",–,slightly hygroscopic,good stability,–,–,–

# Source: patent US10947202B2, “Sodium ion channel inhibitors and pharmaceutically acceptable salts and polymorphs thereof and uses thereof” (SHANGHAI HAIYAN PHARMACEUTICAL TECHNOLOGY CO., LTD., priority 2017, dated 2021)
